Source: publication PMC11203978, “Discovery of Di(het)arylmethane and Dibenzoxanthene Derivatives as Potential Anticancer Agents” (International Journal of Molecular Sciences, 2024)

Assays:
A549 = test: MTT cytotoxicity, A549; format: cell-based; details: Homo sapiens, read-out: IC50 (µM) Cancer Cell Lines A549
Excerpt: (§1) Cells and Materials. For the experiments, we used tumor cell cultures M-HeLa clone 11 (epithelioid carcinoma of the cervix, subline HeLa, clone M-HeLa), HuTu 80, human duodenal adenocarcinoma, Hep-2, human epithelial cells, SH-SY5Y, human neuroblast-like cells, A549, human lung adenocarcinoma, PA-1, human ovarian teratocarcinoma and MCF-7, a human mammary ductal adenocarcinoma from the collection of the Institute of Cytology, Russian Academy of Sciences (St. Petersburg, Russia); human liver cells (Chang liver) were from the collection and the Research Institute of Virology of the Russian Academy of Medical Sciences (Moscow, Russia).
(§2) MTT Assay. The cytotoxic effect on cells was determined using the colorimetric method of cell proliferation—the MTT test. NADP-H-dependent cellular oxidoreductase enzymes can, under certain conditions, reflect the number of viable cells. These enzymes reduce the tetrazolium dye (MTT) 3-(4,5-dimethylthiazol-2-yl)-2,5-diphenyl-tetrazolium bromide to insoluble blue-violet formazan, which crystallizes inside the cell. The amount of formed formazan is proportional to the number of cells with active metabolism. […] Optical density was recorded at 540 nm on an Invitrologic microplate reader (Novosibirsk, Russia). […]
(§3) Statistical analysis. The IC50 values were calculated using the MLA–Quest Graph™ IC50 Calculator (AAT Bioquest, Inc., Sunnyvale, CA, USA), 14 February 2022. […]

MCF-7 = test: MTT cytotoxicity, MCF-7; format: cell-based; details: Homo sapiens, MCF7, read-out: IC50 (µM) Cancer Cell Lines MCF-7
Excerpt: as §1, §2, §3

M-HeLa = test: MTT cytotoxicity, M-HeLa; format: cell-based, human; details: M-HeLa
Excerpt: as §1
(§4) MTT Assay. The cytotoxic effect on cells was determined using the colorimetric method of cell proliferation—the MTT test. NADP-H-dependent cellular oxidoreductase enzymes can, under certain conditions, reflect the number of viable cells. These enzymes reduce the tetrazolium dye (MTT) 3-(4,5-dimethylthiazol-2-yl)-2,5-diphenyl-tetrazolium bromide to insoluble blue-violet formazan, which crystallizes inside the cell. The amount of formed formazan is proportional to the number of cells with active metabolism. Cells were seeded on a 96-well Nunc plate at a concentration of 5 × 10^3 cells per well in a volume of 100 μL of medium and cultured in a CO2 incubator at 37 °C until a monolayer was formed. After the nutrient medium was removed, 100 µL of the test drug solutions at the given dilutions were added to the wells, which were prepared directly in the nutrient medium with the addition of 5% DMSO to improve solubility. After 48 h of incubation of the cells with the tested compounds, the nutrient medium was removed from the plates and 100 µL of the nutrient medium without serum with MTT at a concentration of 0.5 mg/mL was added and incubated for 4 h at 37 °C. Formazan crystals were added 100 µL of DMSO to each well. Optical density was recorded at 540 nm on an Invitrologic microplate reader (Novosibirsk, Russia). The experiments for all compounds were repeated three times.
(§5) Statistical analysis. The IC50 values were calculated using the MLA–Quest Graph™ IC50 Calculator (AAT Bioquest, Inc., Sunnyvale, CA, USA), 14 February 2022. Statistical analysis was performed with the Mann–Whitney test (p < 0.05). Tabular and graphical data contain averages and standard error.

Hep-2 = test: MTT cytotoxicity, Hep-2; format: cell-based; details: Homo sapiens, read-out: IC50 (µM) Cancer Cell Lines Hep-2
Excerpt: as §1, §2, §3

HuTu 80 cells = test: Induction of apoptosis, flow cytometry (annexin V-Alexa Fluor 647 / propidium iodide); format: cell-based, human; details: IC50/2 and IC50, 24 h
Method: The ability of the new compounds, proposed as antitumor agents, to induce cell death via apoptosis is a critical feature for their potential use in therapy. The apoptosis-inducing effects of lead compounds were investigated using flow cytometry at IC50/2 and IC50 concentrations on the HuTu 80 cell line (Figure 6A).
Cell Culture. HuTu 80 cells at 1 × 10^6 cells/well in a final volume of 2 mL were seeded into six-well plates. After 48 h of incubation, various concentrations of lead compounds were added to wells.
Cell Apoptosis Analysis. The cells were harvested at 2000 rpm for 5 min and were then washed twice with ice-cold PBS, and resuspended in binding buffer. Next, the samples were incubated with 5 μL of annexin V-Alexa Fluor 647 (Sigma-Aldrich, St Louis, MO, USA) and 5 μL of propidium iodide for 15 min at room temperature in the dark. Finally, the cells were analyzed using flow cytometry (Guava easy Cyte, MERCK, Rahway, NJ, USA) within 1 h. The experiments were repeated three times.

Chang Liver = test: MTT cytotoxicity, normal Chang liver cells; format: cell-based, human; details: Homo sapiens, Chang liver, 48 h incubation, read-out: IC50 (µM) Normal Cell Line Chang Liver
Excerpt: as §1, §4, §5

HuTu 80 = test: MTT cytotoxicity, HuTu 80; format: cell-based, human
Excerpt: as §1, §4, §5

SH-SY5Y = test: MTT cytotoxicity, SH-SY5Y; format: cell-based; details: Homo sapiens, read-out: IC50 (µM) Cancer Cell Lines SH-SY5Y
Excerpt: as §1, §2, §3

PA-1 cells = test: Cell glycolysis, Seahorse XF Glycolysis Stress Test (ECAR); format: cell-based, human; details: 100 μM
Excerpt: To investigate whether the cytotoxicity of 5a and 6a is related to their effects on metabolism, we quantified their inhibition of glycolysis in human ovarian teratocarcinoma PA-1 cells using Seahorse technology, which allows the rapid assessment of glycolytic metabolism in cells using a proton efflux rate assay (ECAR). It is well known that glucose in cells is converted to pyruvate and then either to lactate in the cytoplasm or CO2 and water in the mitochondria. As glucose is converted to lactate, protons are released into the extracellular environment to maintain intracellular pH homeostasis. This extracellular acidification is measured in real time and provides insight into the rate of glycolytic proton efflux. PA-1 cells are used for the study of glycolysis since a pronounced deregulation of cellular energy is observed in the case of ovarian cancer, mediating the growth, invasion and migration of tumor cells.
Measuring ECAR under these conditions provides the parameters presented in Figure 9c,d: the level of glycolysis and glycolytic capacity.
Determination of cell glycolysis. Cell glycolysis was measured with Seahorse XF Glycolysis Stress Test Kit and Seahorse Bioscience XF96 Extracellular Flux Analyzer (Agilent Technology, Boston, MA, USA). […] ECAR levels were examined and analyzed using Seahorse Bioscience XF96 Extracellular Flux Analyzer. […]

## O=C(C[P+](c1ccccc1)(c1ccccc1)c1ccccc1)NCCC1c2c(ccc3ccccc23)Oc2ccc3ccccc3c21 [Compound 6a]
A549
  IC50: 5.47 ± 0.07 µM
MCF-7
  IC50: 7.12 ± 0.76 µM
M-HeLa; Homo sapiens, MTT, 48 h incubation, read-out: IC50 (µM) Cancer Cell Lines M-HeLa
  IC50: 11 ± 8.7 µM
M-HeLa
  times more effective than the reference drug sorafenib: three times more effective
Hep-2
  IC50: 2.34 ± 0.01 µM
HuTu 80 cells
  apoptosis-inducing effect (in words): dose-dependent apoptosis
Chang Liver
  IC50: 41 ± 3.5 µM
HuTu 80; Homo sapiens, HuTu80, 48 h, MTT, 48 h incubation, read-out: IC50 (µM) Cancer Cell Lines HuTu 80
  IC50: 1.7 ± 0.1 µM
HuTu 80; HuTu 80
  times more effective / more cytotoxic than the reference drug sorafenib: three times more effective
SH-SY5Y
  IC50: 10.9 ± 0.23 µM
PA-1 cells
  glycolysis (ECAR) at maximum concentration (in words): completely blocking glycolysis
